In PubChem BioAssay (NCI):
Several values for one entry are separate records, joined by “and”; a condition that tells them apart may be missing. Identical values can stand only once.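 How tested: cells in 96-well plates exposed to compound for 48 hours at five concentrations. The concentration for 50% growth inhibition is given as GI50. TGI marks complete inhibition of growth.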

How the values were obtained:
Assay in all cases: growth of human tumour cells (NCI), 48 h
786-0 renal = system: 786-0 renal
ACHN renal = system: ACHN renal
CCRF-CEM leukemia = system: CCRF-CEM leukemia
EKVX NSCLC = system: EKVX NSCLC
HCC-2998 colon = system: HCC-2998 colon
IGROV1 ovarian = system: IGROV1 ovarian
MALME-3M melanoma = system: MALME-3M melanoma
MDA-MB-435 = system: MDA-MB-435
NCI-H23 lung = system: NCI-H23 lung
OVCAR-3 ovarian = system: OVCAR-3 ovarian
PC-3 prostate = system: PC-3 prostate
RXF 393 renal = system: RXF 393 renal
SK-MEL-5 melanoma = system: SK-MEL-5 melanoma
T-47D breast = system: T-47D breast
UACC-257 melanoma = system: UACC-257 melanoma
UACC-62 melanoma = system: UACC-62 melanoma
SN12C renal = system: SN12C renal
TK-10 renal = system: TK-10 renal

Row | Structure (SMILES) | TGI (786-0 renal) [µM] | TGI (ACHN renal) [µM] | TGI (CCRF-CEM leukemia) [µM] | TGI (EKVX NSCLC) [µM] | TGI (HCC-2998 colon) | TGI (IGROV1 ovarian) [µM] | TGI (MALME-3M melanoma) [µM] | TGI (MDA-MB-435) [µM] | TGI (NCI-H23 lung) [µM] | TGI (OVCAR-3 ovarian) [µM] | TGI (PC-3 prostate) [µM] | TGI (RXF 393 renal) [µM] | TGI (SK-MEL-5 melanoma) [µM] | TGI (T-47D breast) [µM] | TGI (UACC-257 melanoma) [µM] | TGI (UACC-62 melanoma) [µM] | TGI (SN12C renal) [µM] | TGI (TK-10 renal) [µM] | GI50 (SN12C renal) [µM] | GI50 (UACC-257 melanoma) [µM]
1 | CN(/N=C/c1ccccn1)C1=NCCN1 | > 100 | > 100 | > 100 | > 100 | > 100 µM | > 100 | > 100 | > 100 | > 100 | > 100 | > 100 | > 100 | > 100 | > 100 | > 100 | > 100 |  |  |  | 
2 | CC[C@@H]1CC[C@@H]2[C@H](CC[C@]3(C)[C@@H](O[N+](=O)[O-])CC[C@@H]23)[C@H]1C(C)=O | > 100 | > 100 | > 100 | 80.9 | > 100 µM | > 100 | 65.3 | > 100 | > 100 | > 100 | 74.9 | > 100 | 40.4 | 96.4 | 55 |  | > 100 | > 100 |  | 
3 | CO/C(N)=C(\C#N)N=Cc1ccsc1 | > 100 | > 100 | 81 | > 100 | > 100 µM | > 100 | > 100 | > 100 | > 100 | > 100 | > 100 | > 100 | > 100 | > 100 | > 100 | > 100 | > 100 | > 100 |  | 
4 | CC1(c2ccc(Cl)cc2)C=C(c2ccc(Cl)cc2)C(C#N)=C(C(C#N)C#N)N1 (stereo unspecified) | 26.9 | 30.5 | > 100 | 31.3 | 31.3 µM | 25.6 | 29.1 | 34.5 | 32.3 | 21.3 | 31.5 | 38.2 | 28.2 | 46.9 | 37.3 | 28.2 | 33.5 | 33.8 |  | 
5 | COc1ccc(/C=C2\C[C@H]3[C@@H]4CC=C5C[C@@H](O)CC[C@]5(C)[C@H]4CC[C@]3(C)\C2=N\O)cc1 | 44.3 | > 100 | > 100 | 8.78 |  | 96.2 | 76.6 | > 100 | > 100 | 29.7 | > 100 | > 100 | 23.3 | 4.68 | 45.7 | 50.3 | 44.4 | > 100 |  | 
6 | CN(Cc1cccc2ccsc12)/N=C\c1ccc(Cl)cc1 | > 100 | > 100 | > 100 | > 100 | > 100 µM | > 100 | > 100 | > 100 | > 100 | 48.3 | > 100 | > 100 | 41.6 | > 100 | 95.4 | > 100 | > 100 | > 100 |  | 
7 | Cc1cn([C@H]2C[C@@H](N3C(=O)c4ccccc4C3=O)[C@@H](CO[Si](C)(C)C(C)(C)C)O2)c(=O)[nH]c1=O | 81.5 | > 100 | > 100 | > 100 | > 100 µM | > 100 | > 100 | > 100 | > 100 | > 100 | > 100 | 52 | > 100 | > 100 | > 100 | 74.9 | > 100 | > 100 |  | 
8 | O=C(/C=C/c1ccccc1)CCN1CCCCC1 | 44.4 | > 100 | > 100 | > 100 | > 100 µM | > 100 | > 100 | 84.4 | 89.8 | > 100 | > 100 | 75 | > 100 | > 100 | > 100 | > 100 | 48.8 | > 100 |  | 
9 | Nc1nccc(NCC2(CO)CC(CCc3ccccc3)C2)n1 (stereo unspecified) | 27.8 | 32.6 | 55.5 | 46.9 | 35.9 µM | 33.3 | 29.1 | 28.7 | 41.4 | 38.9 | 31.9 | 36 | 16.9 | 27.6 | 37.9 | 28.5 | 60.2 | 25.5 |  | 
10 | CCOc1ccc(NC(=O)C(=O)C(/C(=N/N)C(=O)OC)c2nc3ccc([N+](=O)[O-])cc3[nH]c2=O)cc1 (stereo unspecified) | > 100 | > 100 | > 100 | > 100 | > 100 µM | > 100 | > 100 | > 100 | > 100 | > 100 | > 100 | > 100 | > 100 | > 100 | > 100 | > 100 | > 100 | > 100 |  | 
11 | COC(=O)c1c(C)cccc1C1CN=NC12Cc1cc(C)c(C)cc1C2=O (stereo unspecified) | > 100 | > 100 | > 100 | > 100 | > 100 µM | > 100 | > 100 | > 100 | > 100 | > 100 | > 100 | > 100 | 46.3 | > 100 | > 100 | > 100 | > 100 | > 100 |  | 
12 | C#CCN(C(=O)C(F)(F)F)C(/C=C\C(=O)OC)(C(=O)OCC)C(=O)OCC | > 100 | > 100 | > 100 | > 100 | > 100 µM | > 100 | > 100 | > 100 | > 100 | > 100 | > 100 | > 100 | > 100 | > 100 |  | > 100 | > 100 | > 100 |  | 
13 | Cc1cnc2[nH]c(-c3cccc4ccccc34)cc(=O)c2c1 | > 100 | 64.6 | > 100 | > 100 | 0.029 µM and 0.0576 µM | 43.5 | 0.000989 | 0.000499 | > 100 |  | > 100 | 0.0923 |  | > 100 | > 100 | > 100 | > 100 |  | 0.042 | 15
14 | O=C(OC1OC2COC(=O)c3cc(O)c(O)c(O)c3-c3c(cc(O)c(O)c3O)C(=O)OC3C2OC(=O)[C@@]24CC(=O)[C@@](O)(OC25C(=O)O[C@H]2[C@@H](O)CO[C@@]25O)C2(O)Oc5c(O)c(O)cc(c5C24)C(=O)OC13)c1cc(O)c(O)c(O)c1 (stereo partly specified) | > 100 | > 100 | 87.8 | > 100 | > 100 µM | > 100 | > 100 | 33 | > 100 | > 100 | > 100 | > 100 | > 100 | > 100 | > 100 | > 100 | > 100 |  |  | 
15 | Cc1nc2ccc(S(=O)(=O)O)cc2c(=O)n1-c1ccc(C(=O)NN2C(=O)C(Cl)C2c2cccs2)cc1 (stereo unspecified) | > 100 | > 100 | > 100 | 35.3 | > 100 µM |  | > 100 | 89.8 | > 100 | > 100 | > 100 | > 100 | > 100 | > 100 | > 100 | > 100 | > 100 | > 100 |  | 
16 | Cc1ccc2c(c1C)CC1(Cc3ccc(C)c(C)c3C1=O)C2=O (stereo unspecified) | > 100 | > 100 | > 100 | > 100 | > 100 µM | > 100 | > 100 | > 100 |  | > 100 | > 100 | 54.3 | > 100 | > 100 | > 100 | > 100 | > 100 | > 100 |  | 
17 | NCCc1ccc(S(=O)(=O)O)cc1[N+](=O)[O-] | > 100 | > 100 | > 100 | > 100 |  | > 100 | > 100 | > 100 | > 100 | > 100 | > 100 | > 100 | > 100 | > 100 | > 100 | > 100 | > 100 | > 100 |  | 
18 | C=CCN(c1cc(O)c2c(c(C)cn2S(=O)(=O)c2ccccc2)c1[N+](=O)[O-])S(C)(=O)=O | > 100 | > 100 | > 100 | > 100 | > 100 µM | > 100 | > 100 | 74.7 | > 100 | > 100 | > 100 | > 100 | > 100 | > 100 | > 100 |  | > 100 | > 100 |  | 
19 | N#CCc1nc(-c2cc3ccccc3oc2=O)cs1 | > 100 | > 100 | > 100 | > 100 | > 100 µM | > 100 | > 100 | > 100 |  |  | > 100 | > 100 | 64 | > 100 | > 100 | 45.6 | > 100 | > 100 |  | 
20 | N/C(=N\N=C\c1nc2ccccc2o1)c1cnccn1 | > 100 | > 100 | > 100 | > 100 |  | > 100 | 4.38 | > 100 | > 100 | > 100 | > 100 | > 100 | > 100 | > 100 | > 100 | > 100 | > 100 | > 100 |  | 
